How the values were obtained:
[1] = test system: H3K27me3 at promoters of Wnt and pluripotency genes; assay: ChIP-sequencing of H3K27me3 in MYC-CTNNB1 organoids; format: cell-based, mouse; conditions: WNTinib 1 μM, 24 hours
From the text: Importantly, this was not seen in the MYC-Tp53 model organoids (FIG. 10C).

[2] = Single dose oral pharmacokinetics; format: in vivo, BALB/c mice; conditions: for half-life: 20 mg/kg oral gavage
Method: All animal experiments were carried out in accordance with ethical guidelines and approved by the Institutional Animal Care and Use Committee (IACUC), Biological Resource Center (BRC) A*STAR. BALB/c mice were purchased from InVivos, Singapore and fed with a standard laboratory diet and distilled water ad libitum. The animals were kept on a 12-hour light/dark cycle at 22±2° C. in individually ventilated caging systems with 50-65% humidity in the Biological Resource Centre, A*Star, Singapore. For single dose oral pharmacokinetic studies, female BALB/c mice (n=8, 6-8 weeks old) were used. The animals were fasted overnight and administered with a single oral dose (20 mg/kg) of WNTinib as prepared above. Blood samples were collected at pre-determined time points [0 (pre-dosing), 0.5, 1, 2, 4, 8, 12, and 24 hours] through the retro-orbital plexus (using micro hematocrit capillary tubes) into microvette CB300 K2E tubes. A sparse sampling technique (four mice per time point) was adopted during blood collection so that blood loss from each mouse was kept less than 10% of the total blood volume. Plasma was harvested by centrifuging the blood using a Sorvall Legend Micro 21R centrifuge (Thermo Scientific) at 3000 rpm for 15 minutes and stored at […] until further analysis. Mice were allowed to access feed 2 hours post-dosing and water ad libitum. Pharmacokinetic analysis of these compounds was performed using a Shimadzu UFLC prominence system (equipped with degasser (DGU-20A5), isopump (LC-20AD), autosampler (SIL-20AC HT) and column oven (CTO-20AC)) connected to a Sciex 4000 Q-Trap LC/MS/MS with heated electrospray ionization source. The primary stock solution (1.0 mg/mL) of WNTinib and Carbamazepine (Internal Standard, IS) were prepared in DMSO and used for subsequent dilutions. Required secondary and working stocks were prepared from the primary stocks using acetonitrile:water (75:25, v/v) as a diluent for the calibration curve (CC) and quality control (QC) studies. For the pharmacokinetic analysis, the mouse plasma was mixed with carbamazepine (50 ng/ml, final concentration) and extraction solvent (70% acetonitrile and 0.1% formic acid) and shaken for 10 minutes. After vigorous shaking, the samples were centrifuged at 14000 rpm for 20 minutes and the supernatant was collected. Chromatographic resolution of compound and the IS was achieved by injecting 1-2 μL of the processed sample on a Luna C18 100 Å column (50×2.0 mm, 5 μm; Phenomenex, USA) maintained at room temperature using a mobile phase consisting of 5 mM ammonium formate (buffered with 0.1% formic acid) and acetonitrile delivered at a flow-rate of 0.4 mL/minute. Quantitation was carried out using the multiple reaction monitoring of the transitions.

[3] = test system: AKSP tumoroids; assay: Full dose-response in CRC tumoroids (AKSP); format: cell-based, mouse; conditions: TiterGlo after 72 hours
Method: (§1) FIGS. 13A-13E show results pertaining to colorectal cancer. […] Data are column/gene normalized on a 0-100 scale with 0 being the lowest expression level and 100 the highest. FIG. 13D show full dose-response analysis of WNTinib's effects on the indicated organoid and tumoroid lines; viability was quantified using the TiterGlo assay after 72 hours. WT intestinal organoids are used as a control. […] Images of the intestine are shown as an example.
Next, a full dose-response of WNTinib in WildType normal organoids (WT), APC^KO (A), APC^KO KRAS^G12D/SMAD4^KO (AKS) and APC^KO KRAS^G12D/SMAD4^KO P53^KO (AKSP) tumoroids was performed. WNTinib has a lower IC50 in the aggressive metastatic AKSP tumoroids compared to their matched parental WT organoid line, providing thus a therapeutic window for the most advanced CRC models (FIG. 13D).

[4] = test system: wild type (WT) healthy intestinal organoids; assay: TiterGlo viability of wild type intestinal organoids; format: cell-based, mouse; conditions: 72 hours post treatment
Method: as §1
First, an APC deletion (A) was introduced, then a KRAS^G12D overexpression (AK) in combination with a SMAD4^KO was introduced to affect the TGFbeta pathway (AKS). Last, P53 was deleted to mimic the latest stages of metastatic disease progression (AKSP).

[5] = Dose escalation studies in mice; format: in vivo, mouse
Method: Mice were randomized into treatment groups, and daily oral dosing began one week after mice arrived at ISMMS. Body weight was recorded daily, and animals were monitored for any signs of sickness throughout the treatment period.
To rationalize a treatment regimen for WNTinib and understand potential toxicity, in vivo dose escalation was performed in three mouse strains (FIG. 8A, FIGS. 12A-12B). Mice were dosed daily for two weeks, and body weight loss was used as a proxy for systemic toxicity.

[6] = test system: kinome; assay: Kinome profiling (KINOMEscan); format: binding
Method: WNTinib's inhibitory profile was performed using Eurofins' (DiscoverX) KINOMVEscan platform. Inhibition trees were visualized using KinMap (Eid et al., “KinMap: A Web-Based Tool for Interactive Navigation through Human Kinome Data,” BMC 10 Bioinformatics 18(1):16 (2017), which is hereby incorporated by reference in its entirety). For regorafenib and sorafenib, publicly available data was used to visualize inhibition trees (Uitdehaag et al., “Comparison of the Cancer Gene Targeting and Biochemical Selectivities of All Targeted Kinase Inhibitors Approved for Clinical Use,” Plos ONE 9(3):e92146 (2014) and Davis et al., “Comprehensive Analysis of Kinase Inhibitor Selectivity,” Nat. Biotechnol. 29(11):1046-1051 (2011), which are hereby incorporated by reference in their entirety).

[7] = test system: pT367 EZH2 and pT71 ATF2; conditions: WNTinib 1 μM, sorafenib 10 μM; for temporal inhibition of pT367 EZH2 and pT71 ATF2: MYC-CTNNB1 organoids, SB202190 10 μM, 48 hours time course; for modulation of pT367 EZH2 in the four tumor organoid models: 48 hours
Method: Tumor organoids were grown in 24 well plates and were collected in Cell Recovery Solution (Corning) after drug treatment. Tumor organoids were left to rotate at 4° C. for one hour in order to dissolve the Matrigel. Tumor organoids were spun down at 300 g at 4° C. for 5 minutes. Pellets were lysed in 2× Laemmli buffer (+4% 2-mercaptoethanol) by heating at 95° C. for 10 minutes followed by 5 seconds of sonication. SDS-PAGE was run using standard procedures.

[8] = test system: Advanced-stage HCC; conditions: patients; cited from earlier work
[9] = dosed daily via oral gavage for two weeks, three mouse strains

Structure (SMILES)	H3K27me3 at promoters of genes of Wnt and pluripotency pathways [1]	detectable quantities of drug in blood plasma, time post dosing ([2]; 20 mg/kg oral)	half-life ([2]; female, BALB/c, mouse, plasma) [h]	concentration at 24 h ([2]; female, BALB/c, mouse, plasma, 20 mg/kg oral, read-out: concentration 24 hours after oral dosing) [µM]	IC50 in AKSP tumoroids compared to parental WT organoid line [3]	viability of WT organoids [4]	tolerability of exposures ([5]; dose escalation and 20 mg/kg PK (FIG. 8A, 8B))	body weight loss [5, 9]	signs of sickness [5, 9]	kinome selectivity (selectivity scores) ([6]; compared with sorafenib and regorafenib)	kinase targets maintained ([6]; in vitro kinase assays)	temporal inhibition of pT367 EZH2 and pT71 ATF2 [7]	modulation of pT367 EZH2 in the four tumor organoid models [7]	median survival [8]
CNC(=O)c1cc(Oc2ccc(NC(=O)Nc3ccc(C(F)(F)C(F)(F)F)cc3)c(F)c2)ccn1 [WNTinib, 4-(3-fluoro-4-(3-(4-(perfluoroethyl)phenyl)ureido)phenoxy)-N-methylpicolinamide]	upregulated the tri-methylation of lysine 27 on histone H3 (H3K27me3)	up to 72 hours	9.38	7	lower IC50	without affecting that of WT organoids	well-tolerated	weight loss did occur in a dose-dependent manner	No mice showed signs of sickness	generally less promiscuous than the parental compounds	maintains several of the proposed key targets of sorafenib and regorafenib, including c-KIT, PDGFRα/β, VEGFR1/2, RET and FLT3	delayed, but durable inhibition up to 48 hours	inhibited by WNTinib in the MYC-CTNNB1 model	
CNC(=O)c1cc(Oc2ccc(NC(=O)Nc3ccc(Cl)c(C(F)(F)F)c3)cc2)ccn1 [sorafenib, reference compound]			8									transient inhibition	induced pT367 across several organoid models	11-14 months
